Experimental data from patent US20180368410A1, “MICROBIOCIDAL OXADIAZOLE DERIVATIVES” (SYNGENTA PARTICIPATIONS AG, priority 2015, published 2018).

Columns and labels:
[1] = tested on: Uromyces viciae-Fabael; assay: Uromyces viciae-fabae / field bean / leaf disc preventative (faba-bean rust); assay type: in vivo, Uromyces viciae-fabae on field bean; conditions: foliar, 288 h, 100 ppm in the applied formulation, inoculated two hours after application, assessed 12 days after application, vs untreated control leaf discs, read-out: disease control
Method: (§1) Leaf disks or leaf segments of various plant species are cut from plants grown in a greenhouse. The cut leaf disks or segments are placed in multiwell plates (24-well format) onto water agar. The leaf disks are sprayed with a test solution before (preventative) or after (curative) inoculation. Compounds to be tested are prepared as DMSO solutions (max. 10 mg/ml) which are diluted to the appropriate concentration with 0.025% Tween20 just before spraying. The inoculated leaf disks or segments are incubated under defined conditions (temperature, relative humidity, light, etc.) according to the respective test system. A single evaluation of disease level is carried out 3 to 14 days after inoculation, depending on the pathosystem. Percent disease control relative to the untreated check leaf disks or segments is then calculated.
Field bean leaf discs are placed on water agar in multiwell plates (96-well format) and 10 μl of the formulated test compound diluted in acetone and a spreader pipetted onto the leaf disc. Two hours after application leaf discs are inoculated by spraying a spore suspension on the lower leaf surface. The leaf discs are incubated in a climate cabinet at 22° C. with 18 hour day and 70% relative humidity. The activity of a compound is assessed as percent disease control compared to untreated when an appropriate level of disease damage appears in untreated check leaf disks (12 days after application).
The following compounds at 100 ppm in the applied formulation give at least 80% disease control in this test when compared to untreated control leaf discs under the same conditions, which show extensive disease development.

[2] = tested on: Puccinia recondita f. Sp. Tritici; assay: Puccinia recondita f. sp. tritici / wheat / leaf disc preventative (brown rust); assay type: in vivo, Puccinia recondita f. sp. tritici on wheat cv. Kanzler; conditions: foliar, 200 ppm in the applied formulation, inoculated 1 day after application, assessed 7 to 9 days after application, vs untreated control leaf disks, read-out: disease control
In short: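 Wheat cv. Kanzler leaf segments on agar were sprayed with compound (DMSO stock diluted with 0.025% Tween20) 1 day before inoculation with spores. Segments were held at 19 °C, 75% rh, 12 h light/dark. Percent disease control versus untreated was scored 7–9 days after application.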

[3] = tested on: Glomerella Lacenarium (Colletotrichum lacenarium); assay: Glomerella lagenarium (Colletotrichum lagenarium) liquid culture / cucumber / preventative (anthracnose); assay type: cell-based; conditions: 20 ppm in the applied formulation, liquid culture in PDB, 24° C., inhibition of growth measured photometrically 3 to 4 days after application, vs untreated control, read-out: disease control
In short: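 Cryostored conidia mixed into potato dextrose broth and added to DMSO compound solution in microtiter plates. Incubated at 24 °C. Growth inhibition read photometrically 3–4 days after application as percent activity versus untreated check.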

[4] = tested on: Puccinia recondita f. Sp. Triticil; assay: Puccinia recondita f. sp. tritici / wheat / leaf disc curative (brown rust); assay type: in vivo, Puccinia recondita f. sp. tritici on wheat cv. Kanzler; conditions: foliar, 200 ppm in the applied formulation, applied 1 day after inoculation, assessed 6 to 8 days after application, vs untreated control leaf disks, read-out: disease control
In short: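 Curative test: wheat leaf segments cv. Kanzler on agar inoculated with spore suspension, kept dark at 19 °C/75% RH, then sprayed 1 day post-inoculation with compound diluted in water. Incubated at 19 °C, 75% RH, 12 h light/dark; percent disease control versus untreated scored 6–8 days after application.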

[5] = tested on: Phakopsora pachyrhizi; assay: Phakopsora pachyrhizi / soybean / leaf disc preventative (Asian soybean rust); assay type: in vivo, Phakopsora pachyrhizi on soybean; conditions: foliar, 200 ppm in the applied formulation, inoculated one day after application, assessed 12 to 14 days after application, vs untreated control leaf disks, read-out: disease control
Method: as §1
Soybean leaf disks are placed on water agar in multiwell plates (24-well format) and sprayed with the formulated test compound diluted in water. One day after application leaf discs are inoculated by spraying a spore suspension on the lower leaf surface. After an incubation period in a climate cabinet of 24-36 hours in darkness at 20° C. and 75% rh leaf disc are kept at 20° C. with 12 h light/day and 75% rh. The activity of a compound is assessed as percent disease control compared to untreated when an appropriate level of disease damage appears in untreated check leaf disks (12 to 14 days after application).
The following compounds at 200 ppm in the applied formulation give at least 80% disease control in this test when compared to untreated control leaf disks under the same conditions, which show extensive disease development.

Q: `O=C(NCc1ccc(-c2noc(C(F)(F)F)n2)cc1)c1ccc(Cl)cc1Cl` [Compound 1.8, 2,4-dichloro-N-[[4-[5-(trifluoromethyl)-1,2,4-oxadiazol-3-yl]phenyl]methyl]benzamide] was tested. Which pest or weed control at 100 ppm [1] did it give?
A: ≥ 80%

Q: `O=C(NCc1ccc(-c2noc(C(F)(F)F)n2)cc1)c1cccc(C(F)(F)F)c1` [Compound 1.9, 3-(trifluoromethyl)-N-[[4-[5-(trifluoromethyl)-1,2,4-oxadiazol-3-yl]phenyl]methyl]benzamide] was tested. Which pest or weed control at 100 ppm [1] did it give?
A: ≥ 80%

Q: How did the pest or weed control at 100 ppm [1] turn out when `O=C(CCc1ccc(Cl)cc1)NCc1ccc(-c2noc(C(F)(F)F)n2)cc1` [Compound 1.11, 3-(4-chlorophenyl)-N-[[4-[5-(trifluoromethyl)-1,2,4-oxadiazol-3-yl]phenyl]methyl] propanamide] was run?
A: ≥ 80%

Q: For `O=C(Cc1ccccc1Cl)NCc1ccc(-c2noc(C(F)(F)F)n2)cc1` [Compound 1.12, 2-(2-chlorophenyl)-N-[[4-[5-(trifluoromethyl)-1,2,4-oxadiazol-3-yl]phenyl]methyl]acetamide], which pest or weed control at 200 ppm [2] is on record?
A: ≥ 80%

Q: What about the pest or weed control at 100 ppm [1] of the same compound?
A: ≥ 80%

Q: Which results are given for `O=C(NCc1ccc(-c2noc(C(F)(F)F)n2)cc1)C1(c2ccc(Cl)cc2)CCC1` [Compound 1.13, 1-(4-chlorophenyl)-N-[[4-[5-(trifluoromethyl)-1,2,4-oxadiazol-3-yl]phenyl]methyl] cyclobutanecarboxamide]?
A: pest or weed control at 200 ppm [2]: ≥ 80%; pest or weed control at 100 ppm [1]: ≥ 80%

Q: How did the inhibition of growth at 20 ppm [3] turn out when `O=C(NCc1ccc(-c2noc(C(F)(F)F)n2)cc1)C1(c2ccccc2)CC1` [Compound 1.14, 1-phenyl-N-[[4-[5-(trifluoromethyl)-1,2,4-oxadiazol-3-yl]phenyl]methyl] cyclopropanecarboxamide] was run?
A: ≥ 80%

Q: And the pest or weed control at 200 ppm [2]?
A: ≥ 80%

Q: And the pest or weed control at 100 ppm [1]?
A: ≥ 80%

Q: For `O=C(NCc1ccc(-c2noc(C(F)(F)F)n2)cc1)C1CC1c1ccccc1` (stereo not drawn) [Compound 1.15, 2-phenyl-N-[[4-[5-(trifluoromethyl)-1,2,4-oxadiazol-3-yl]phenyl]methyl] cyclopropanecarboxamide], which inhibition of growth at 20 ppm [3] is on record?
A: ≥ 80%

Q: What about the pest or weed control at 200 ppm [2] of the same compound?
A: ≥ 80%

Q: And the pest or weed control at 100 ppm [1]?
A: ≥ 80%

Q: How did the pest or weed control at 200 ppm [4] turn out when `O=C(Cc1cccnc1)NCc1ccc(-c2noc(C(F)(F)F)n2)cc1` [Compound 1.17, 2-(3-pyridyl)-N-[[4-[5-(trifluoromethyl)-1,2,4-oxadiazol-3-yl]phenyl]methyl]acetamide] was run?
A: ≥ 80%

Q: What about the pest or weed control at 200 ppm [2] of the same compound?
A: ≥ 80%

Q: What about the pest or weed control at 100 ppm [1] of the same compound?
A: ≥ 80%

Q: With `CC1(C(=O)NCc2ccc(-c3noc(C(F)(F)F)n3)cc2)CC1(Cl)Cl` (stereo not drawn) [Compound 1.20, 2,2-dichloro-1-methyl-N-[[4-[5-(trifluoromethyl)-1,2,4-oxadiazol-3-yl]phenyl]methyl] cyclopropanecarboxamide] as the compound, how does the inhibition of growth at 20 ppm [3] read?
A: ≥ 80%

Q: What about the pest or weed control at 200 ppm [2] of the same compound?
A: ≥ 80%

Q: What about the pest or weed control at 100 ppm [1] of the same compound?
A: ≥ 80%

Q: For `COc1ccccc1CC(=O)NCc1ccc(-c2noc(C(F)(F)F)n2)cc1` [Compound 1.23, 2-(2-methoxyphenyl)-N-[[4-[5-(trifluoromethyl)-1,2,4-oxadiazol-3-yl]phenyl]methyl]acetamide], which pest or weed control at 200 ppm [4] is on record?
A: ≥ 80%

Q: And the pest or weed control at 200 ppm [2]?
A: ≥ 80%

Q: And the pest or weed control at 100 ppm [1]?
A: ≥ 80%

Q: How did the pest or weed control at 100 ppm [1] turn out when `CCC1(C(=O)NCc2ccc(-c3noc(C(F)(F)F)n3)cc2)C(C)C1(Cl)Cl` (stereo not drawn) [Compound 1.31, 2,2-dichloro-1-ethyl-3-methyl-N-[[4-[5-(trifluoromethyl)-1,2,4-oxadiazol-3-yl]phenyl]methyl] cyclopropanecarboxamide] was run?
A: ≥ 80%

Q: With `O=C(Cc1ccc(C(F)(F)F)cc1)NCc1ccc(-c2noc(C(F)(F)F)n2)cc1` [Compound 1.34, N-[[4-[5-(trifluoromethyl)-1,2,4-oxadiazol-3-yl]phenyl]methyl]-2-[4-(trifluoromethyl)phenyl] acetamide] as the compound, how does the pest or weed control at 200 ppm [2] read?
A: ≥ 80%

Q: And the pest or weed control at 100 ppm [1]?
A: ≥ 80%

Q: With `CCOc1ccc(C2(C(=O)NCc3ccc(-c4noc(C(F)(F)F)n4)cc3)CC2(F)F)cc1` (stereo not drawn) [Compound 1.35, 1-(4-ethoxyphenyl)-2,2-difluoro-N-[[4-[5-(trifluoromethyl)-1,2,4-oxadiazol-3-yl]phenyl]methyl] cyclopropanecarboxamide] as the compound, how does the pest or weed control at 100 ppm [1] read?
A: ≥ 80%

Q: Which results are given for `O=C(NCc1ccc(-c2noc(C(F)(F)F)n2)cc1)c1ccc(Cl)cc1` [Compound 1.36, 4-chloro-N-[[4-[5-(trifluoromethyl)-1,2,4-oxadiazol-3-yl]phenyl]methyl]benzamide]?
A: inhibition of growth at 20 ppm [3]: ≥ 80%; pest or weed control at 200 ppm [2]: ≥ 80%; pest or weed control at 100 ppm [1]: ≥ 80%

Q: How did the pest or weed control at 200 ppm [4] turn out when `COc1cccc(C2(C(=O)NCc3ccc(-c4noc(C(F)(F)F)n4)cc3)CC2)c1` [Compound 1.37, 1-(3-methoxyphenyl)-N-[[4-[5-(trifluoromethyl)-1,2,4-oxadiazol-3-yl]phenyl]methyl] cyclopropanecarboxamide] was run?
A: ≥ 80%

Q: What about the pest or weed control at 100 ppm [1] of the same compound?
A: ≥ 80%

Q: With `O=C(NCc1ccc(-c2noc(C(F)(F)F)n2)cc1)C1(c2ccc(Cl)cc2)CC1` [Compound 1.39, 1-(4-chlorophenyl)-N-[[4-[5-(trifluoromethyl)-1,2,4-oxadiazol-3-yl]phenyl]methyl] cyclopropanecarboxamide] as the compound, how does the pest or weed control at 200 ppm [5] read?
A: ≥ 80%

Q: And the pest or weed control at 100 ppm [1]?
A: ≥ 80%

Q: For `O=C(NCc1ccc(-c2noc(C(F)(F)F)n2)cc1)c1ccccc1` [Compound 1.40, N-[[4-[5-(trifluoromethyl)-1,2,4-oxadiazol-3-yl]phenyl]methyl]benzamide], which inhibition of growth at 20 ppm [3] is on record?
A: ≥ 80%

Q: And the pest or weed control at 200 ppm [4]?
A: ≥ 80%

Q: And the pest or weed control at 200 ppm [2]?
A: ≥ 80%

Q: What about the pest or weed control at 100 ppm [1] of the same compound?
A: ≥ 80%

Q: How did the pest or weed control at 200 ppm [5] turn out when `O=C(NCCc1ccc(-c2noc(C(F)(F)F)n2)cc1)C1CCOC1` (stereo not drawn) [Compound 1.100, N-[2-[4-[5-(trifluoromethyl)-1,2,4-oxadiazol-3-yl]phenyl]ethyl] tetrahydrofuran-3-carboxamide] was run?
A: ≥ 80%

Q: And the inhibition of growth at 20 ppm [3]?
A: ≥ 80%

Q: What about the pest or weed control at 200 ppm [4] of the same compound?
A: ≥ 80%

Q: What about the pest or weed control at 200 ppm [2] of the same compound?
A: ≥ 80%

Q: How did the pest or weed control at 200 ppm [5] turn out when `O=C(NCCc1ccc(-c2noc(C(F)(F)F)n2)cc1)C1CCC1` [Compound 1.101, N-[2-[4-[5-(trifluoromethyl)-1,2,4-oxadiazol-3-yl]phenyl]ethyl] cyclobutanecarboxamide] was run?
A: ≥ 80%

Q: And the inhibition of growth at 20 ppm [3]?
A: ≥ 80%

Q: And the pest or weed control at 200 ppm [4]?
A: ≥ 80%

Q: What about the pest or weed control at 200 ppm [2] of the same compound?
A: ≥ 80%

Q: For `CC1CC1C(=O)NCCc1ccc(-c2noc(C(F)(F)F)n2)cc1` (stereo not drawn) [Compound 1.102, 2-methyl-N-[2-[4-[5-(trifluoromethyl)-1,2,4-oxadiazol-3-yl]phenyl]ethyl] cyclopropanecarboxamide], which pest or weed control at 200 ppm [5] is on record?
A: ≥ 80%

Q: What about the inhibition of growth at 20 ppm [3] of the same compound?
A: ≥ 80%

Q: And the pest or weed control at 200 ppm [4]?
A: ≥ 80%

Q: And the pest or weed control at 200 ppm [2]?
A: ≥ 80%

Q: What does the source list for `CC1(C(=O)NCCc2ccc(-c3noc(C(F)(F)F)n3)cc2)COC1` [Compound 1.104, 3-methyl-N-[2-[4-[5-(trifluoromethyl)-1,2,4-oxadiazol-3-yl]phenyl]ethyl]oxetane-3-carboxamide]?
A: pest or weed control at 200 ppm [5]: ≥ 80%; inhibition of growth at 20 ppm [3]: ≥ 80%; pest or weed control at 200 ppm [4]: ≥ 80%; pest or weed control at 200 ppm [2]: ≥ 80%

Q: Which pest or weed control at 200 ppm [5] does the source give for `O=C(CC1CC1)NCCc1ccc(-c2noc(C(F)(F)F)n2)cc1` [Compound 1.105, 2-cyclopropyl-N-[2-[4-[5-(trifluoromethyl)-1,2,4-oxadiazol-3-yl]phenyl]ethyl]acetamide] here?
A: ≥ 80%

Q: And the inhibition of growth at 20 ppm [3]?
A: ≥ 80%

Q: What about the pest or weed control at 200 ppm [4] of the same compound?
A: ≥ 80%

Q: What about the pest or weed control at 200 ppm [2] of the same compound?
A: ≥ 80%
